What was measured:
[1] = system: human follicular dermal papilla cells (HFDPCs); assay: MTT assay, stimulation of proliferation of human follicular dermal papilla cells; type: cell-based; conditions: sphinganine 0.3 μg/ml; creatine 10 μg/ml; caffeine 10 μg/ml; 0.1% (v/v) ethanol; incubation 24 hours
Protocol: The cells were sown in a cell density of about 6300 cells/cm^2 in a T75 bottle with follicle dermal papilla cell growth medium (for short: growth medium) and then incubated at 37° C., 5% CO2. After 1 day, media exchange was carried out. After a further 3 days, the medium was removed, the cells were washed with PBS (phosphate buffered saline) (without Mg^2+ and Ca^2+), detached by accutase treatment; the cell count is determined and then the cells are sown in a concentration of about 5500 cells/cm^2 in new T75 bottles in growth medium and further cultivated under identical conditions as described above. After 1 and 3 days, media exchange was carried out. After 1 further day, the medium was removed, the cells were washed in PBS (without Mg^2+ and Ca^2+), detached by accutase treatment and then sown in a concentration of about 10 000 cells/cm^2 into the cavities of 6-well cell culture plates with 2.5 ml of growth medium in each case. After 1 day, media exchange was carried out, and the test substances—diluted in fresh medium—were applied. […] All cultivations were carried out in the presence of 0.1% (v/v) ethanol and a corresponding vehicle control was performed at the same time. After incubation for 24 hours, an MTT assay was carried out. The activity in the MTT test indicates the activity of the mitochondrial dehydrogenase and is a marker for the cell vitality and the proliferation capacity. Firstly, a 10 mg/ml stock solution of the MTT reagent (Thiazolyl Blue Tetrazolium Bromide, Sigma Aldrich M5655) in PBS was prepared. The stock solution was then diluted with growth medium to an end concentration of 1 mg/ml MTT reagent. The cells were washed with PBS (without Mg^2+ and Ca^2+) and incubated with 1 ml of growth medium with MTT reagent for 3 h at 37° C. […] The absorption of the extracts was determined by spectrophotometry at a wavelength of 550 nm. The optical density of the extracts from the cells treated only with the vehicle is regarded as the reference (100%), all of the other measured values are quantified relative to the reference sample.

[2] = system: in vitro cultivated keratinocytes; conditions: EP0790053; cited from earlier work
ex vivo hair follicles = ex vivo hair follicles kept in culture; EP0790053; cited from earlier work

Row | Structure (SMILES) | cell proliferation (MTT, optical density at 550 nm relative to vehicle control = 100%) [1] | effect on growth of keratinocytes [2] | lifespan of the hair follicles (ex vivo hair follicles)
1 | Cn1c(=O)c2c(ncn2C)n(C)c1=O [caffeine] | 102.5% | – | –
2 | CN(CC(=O)O)C(=N)N [creatine] | 104.0% | – | –
3 | CCCCCCCCCCCCCCC[C@@H](O)[C@@H](N)CO [sphinganine] | 103.9% | growth-promoting effect | increases the lifespan of the hair follicles

Source: patent US9913789B2, “Formulations containing sphinganine” (Evonik Degussa GmbH, priority 2013, dated 2018)
